Data as given in US9504676B2, “Molecules inhibiting a metabolic pathway involving the Syk protein tyrosine kinase and method for identifying said molecules” (CENTRE NATIONAL DE LA RECHERCHE SCIENTIFIQUE, priority 2008, dated 2016).

Experiments:
BALB/c mice = experiment: Antibody production after immunisation with TNP-KLH; assay type: in vivo; conditions: oral administration of 150 mg/kg, day 12
PLC-γ1 and PLC-γ2 = experiment: Phosphorylation of PLC-γ1 and PLC-γ2 in mast cells; assay type: cell-based
Excerpt: To examine the functional similarities with G4G11, the inventors explored the biological effects of C-13 on mast cell activation. […] Similarly to the intrabody G4G11, C-13 inhibited the phosphorylation and FcεRI-induced kinase activity of Btk (FIG. 2A) and the phosphorylation of PLC-γ1 and PLC-γ2, the two PLC-γ isoforms expressed in mast cells (FIGS. 2A, C). PTK Lyn phosphorylates both Syk and Btk giving rise to the complete activation thereof and the subsequent phosphorylation of PLC-γ^18.
• 1) Chemical products and antibodies. A chemical bank of 3000 molecules (a varied subset) was acquired from ChemBridge, Inc. (San Diego, Calif.). Stocks of solutions of small molecules were prepared at a rate of 10 mM in DMSO (dimethylsulphoxide), except for C-13 (methyl 2-{5-[(3-benzyl-4-oxo-2-thioxo-1,3-thiazolidin-5-ylidene)methyl]-2-furyl}benzoate, ChemBridge ID No. 6197026) prepared in DMF (dimethylformamide). […] The binding of G4G11 with Syk was assessed by adding the 9E10 monoclonal antibody conjugated with HRP detecting the amino acid sequence EQKLISEEDLN of human c-myc protein located at the C-terminal end of the scFv fragment. To generate Syk mutants, targeted mutagenesis was used on GST:Syk 6-242 protein and the binding of G4G11 with the mutants was assessed in the presence of 5 μM of C-13. • 3) Cells, culture conditions and functional tests. […]

## COC(=O)c1ccccc1-c1ccc(/C=C2/SC(=S)N(Cc3ccccc3)C2=O)o1 [Molecule C-13, methyl 2-{5-[(3-benzyl-4-oxo-2-thioxo-1,3-thiazolidin-5-ylidene)methyl]-2-furyl}benzoate]
BALB/c mice
  antibody responses of mice immunised with a thymus-dependent antigen: not affected
PLC-γ1 and PLC-γ2
  phosphorylation of PLC-γ1 and PLC-γ2: inhibited
